Data taken from BigSolDB 2.1.

COc1ccc(CN2CCNCC2)c(OC)c1OC.Cl.Cl
solubility (mole fraction)
Settings	278.15 K	283.15 K	288.15 K	293.15 K	298.15 K	303.15 K	308.15 K	313.15 K	318.15 K	323.15 K
in 1,4-dioxane	–	–	5.08e-05	6.07e-05	7.16e-05	8.25e-05	9.48e-05	0.000109	0.000124	0.000141
in 2-butanone	6.02e-06	6.56e-06	7.1e-06	7.72e-06	8.35e-06	9.05e-06	9.85e-06	1.06e-05	1.15e-05	1.24e-05
in DMF	0.00053	0.000566	0.000609	0.000658	0.000705	0.000754	0.000803	0.000857	0.000913	0.000975
in acetone	6.23e-06	6.82e-06	7.47e-06	8.16e-06	8.85e-06	9.62e-06	1.03e-05	1.11e-05	1.2e-05	1.3e-05
in acetonitrile	1.23e-05	1.37e-05	1.49e-05	1.63e-05	1.77e-05	1.9e-05	2.04e-05	2.19e-05	2.38e-05	2.58e-05
in ethanol	0.000583	0.000652	0.000727	0.000805	0.00089	0.000987	0.00109	0.0012	0.00132	0.00145
in ethyl acetate	0.00201	0.00209	0.00217	0.00226	0.00234	0.00244	0.00254	0.00264	0.00275	0.00286
in isopropanol	7.61e-05	9.15e-05	0.00011	0.000133	0.000157	0.000184	0.000215	0.000247	0.000287	0.000333
in methanol	0.00353	0.00402	0.00458	0.00524	0.00603	0.00682	0.00777	0.00882	0.00993	0.0111
in n-butanol	0.000131	0.000153	0.000177	0.000201	0.000232	0.000263	0.000297	0.000336	0.000383	0.000432
in n-propanol	0.000193	0.000217	0.000246	0.000281	0.000322	0.000366	0.000413	0.000464	0.000521	0.000581
in toluene	7.02e-07	8.19e-07	9.58e-07	1.12e-06	1.33e-06	1.57e-06	1.83e-06	2.12e-06	2.43e-06	2.76e-06
